Measurements published in ChEMBL document CHEMBL3301448, “MMV Malaria Box screening against Toxoplasma gondii and Entamoeba histolytica”.

Tests used:
Entamoeba histolytica = assay: MMV: Primary screening was performed with each compound at a 30 uM final concentration and in triplicate in sealed 96-well polystyrene microtiter plates. Parasite inocula (100 ul) comprising 20000 parasites/ml were added to each well and grown at 37 degrees C in a humidified atmosphere of 5% CO2 for 72 h. Positive controls consisted of metronidazole at 1 mg/ml. The growth of E. histolytica trophozoites in each well was determined microscopically by measuring the diameters of the confluent cells in drug-containing wells relative to those in the nega- tive-control wells.; assay type: functional, organism-based
Toxoplasma gondii = assay: MMV: A total of 100ul of inoculum was added to each well (parasite/cell ratio, ~10:1; final volume, 200 ul). Six hours after inoculation, nonadherent parasites were removed, and 100 ul of complete DMEM (1% penicillin-streptomycin, 3% FBS) supplemented with inhibitors at different concentrations (2-fold serial dilutions starting from 30 uM) was added to all except the negative-control wells. Positive controls, consisting of pyrimethamine (PYR) and sulfadiazine (SDZ) (20-mg/ml stocks in DMSO), were tested at a 2mg/ml final concentration. Each test was performed in triplicate.; assay type: functional, organism-based; conditions: 6 h

Row | SMILES | IC50 (Entamoeba histolytica) | IC50 (Toxoplasma gondii)
1 | CCOC(=O)C1=C(C)N=c2sc(=Cc3ccccc3O)c(=O)n2C1c1ccc(OC)c2ccccc12 (centres undefined) | > 30 µM | > 30 µM
2 | CN1CCN(c2ncnc3c2[nH]c2ccc(Cl)cc23)CC1 | > 30 µM | > 30 µM
3 | Oc1ccccc1CNCC12CC3CC(CC(C3)C1)C2 | > 30 µM | > 30 µM
4 | COc1ccc(-c2nonc2NC(=O)c2cccc(Cl)c2)cc1OC | > 30 µM | > 30 µM
5 | CCOC(=O)c1c(NC(=O)c2ccccc2)sc2c(O)c(CN(CC)CC)ccc12 | > 30 µM | > 30 µM
6 | O=C(Nc1cccc(C(F)(F)F)c1)c1cc(Cl)ccc1O | > 30 µM | > 30 µM
7 | CCOc1cc2c(cc1OCC)C(c1cc(OC)c(O)cc1Cl)NCC2 (centres undefined) | > 30 µM | > 30 µM
8 | Oc1ccc2ccccc2c1CNc1nc2ccccc2[nH]1 | > 30 µM | > 30 µM
9 | CCCN(CCC)CCCNC(=O)c1cc2c(-c3ccc(OC)c(OC)c3)nn(C)c2s1 | > 30 µM | > 30 µM
10 | CCn1c(CN2CCN(Cc3ccccc3)CC2)nc2cc(NC(=O)c3cccs3)ccc21 | > 30 µM | > 30 µM
11 | CC(C)=CCN1CCC(C(=O)Nc2ccc(-c3nc4ccccc4[nH]3)cc2)CC1 | > 30 µM | > 30 µM
12 | COc1cccc(-c2nn(C)c3sc(C(=O)NCCN4CCN(c5ccccc5F)CC4)cc23)c1 | > 30 µM | > 30 µM
13 | Oc1ccccc1CN1CCN(C(c2ccccc2)c2ccccc2)CC1 | > 30 µM | > 30 µM
14 | COc1ccc(C(C)=O)cc1N1C(=O)C2C(C1=O)C1(c3ccccc3)C(=O)C2(c2ccccc2)C(c2ccc(C)cc2)=C1c1ccc(C)cc1 (centres undefined) | > 30 µM | > 30 µM
15 | CN(C)c1ccc(C(O)(c2ccc(N(C)C)cc2)c2ccc(N(C)C)cc2)cc1 [METHYLROSANILINE] | > 30 µM | > 30 µM
16 | OC(CNC1CCCCC1)Cn1c2ccccc2c2ccccc21 (centres undefined) | > 30 µM | 8.72 µM
17 | Cc1ccc(Nc2nc(NCCO)c3ccccc3n2)cc1C | > 30 µM | > 30 µM
18 | CCCCCC(=O)N1c2ccccc2N=C2CC(c3ccc(OC)c(OC)c3)CC(O)=C2C1c1ccc(C(F)(F)F)cc1 (centres undefined) | > 30 µM | > 30 µM
19 | COc1ccc(Br)cc1C1Nc2ccc3ccccc3c2C2=C1C(=O)CC(c1ccccc1)C2 (centres undefined) | > 30 µM | > 30 µM
20 | C=CCc1c(C)nc2ccccc2c1O | > 30 µM | > 30 µM
21 | CCOc1cc(Br)c(C(C)NC(=O)c2cccc(OC)c2)cc1OCC (centres undefined) | > 30 µM | > 30 µM

Row | SMILES | IC50 (Entamoeba histolytica) | IC50 (Toxoplasma gondii)
22 | Cc1ccc(C(=O)c2oc3ccc4c(C)cc(=O)oc4c3c2C)cc1 | > 30 µM | > 30 µM
23 | COc1ccc(-c2nc3cc(Cc4ccc5[nH]c(-c6ccc(OC)cc6)nc5c4)ccc3[nH]2)cc1 | > 30 µM | > 30 µM
24 | Cc1cc(Nc2ccc(Cl)cc2)n2nc(C(F)(F)F)nc2n1 | > 30 µM | > 30 µM
25 | CCc1ccc(Nc2cc(C)c3ccc(O)cc3n2)cc1 | > 30 µM | > 30 µM
26 | COc1ccc(N2CCN(C(CNC(=O)C3CCCCC3)c3ccc4c(c3)OCO4)CC2)cc1 (centres undefined) | > 30 µM | 26.6 µM
27 | OC(CNCC1CCCO1)Cn1c2ccc(Cl)cc2c2cc(Cl)ccc21 (centres undefined) | > 30 µM | > 30 µM
28 | COCCNC(=O)c1ccc(OC2CCN(Cc3ccc(F)c(F)c3)CC2)c(Cl)c1 | > 30 µM | > 30 µM
29 | O=C(O)C1Cc2c([nH]c3ccccc23)C(c2ccc(Cl)cc2Cl)N1 (centres undefined) | > 30 µM | > 30 µM
30 | CCN(CC)CCCNc1ccnc2cc3ccccc3cc12 | > 30 µM | > 30 µM
31 | CCCCc1c(C)nc2c(OC)cccc2c1O | > 30 µM | > 30 µM
32 | COc1ccc(CNC2CCN(c3ccc(NC(=O)c4cccc(Cl)c4)cc3)CC2)cc1OC | > 30 µM | > 30 µM
33 | O=C(Nc1ccc(Br)cc1)Nc1cccc(Cl)c1 | > 30 µM | > 30 µM
34 | CCOc1cc(CNC(C)C(O)c2ccccc2)cc(Cl)c1OCC (centres undefined) | > 30 µM | > 30 µM
35 | COc1cc(C(=O)ON=C(N)Cc2cccc3ccccc23)cc(OC)c1OC | > 30 µM | > 30 µM
36 | CCCOCc1cc(CN2CCN(c3cccc(Cl)c3)CC2)c(O)c2ncccc12 | > 30 µM | > 30 µM
37 | COc1ccc(C(=O)NC(c2ccc(Cl)cc2Cl)c2cc(Cl)c3cccnc3c2O)cc1 (centres undefined) | > 30 µM | > 30 µM
38 | CCOc1ccc2c(c1)CN(Cc1ccc(Cl)cc1)CO2 | > 30 µM | > 30 µM
39 | CN1C=C(c2ccc3ccccc3n2)C(c2c[nH]c3ccccc23)c2ccccc21 (centres undefined) | > 30 µM | > 30 µM
40 | O=C(NC1CCN(Cc2ccccc2)CC1)c1cc(-c2cccnc2)nc2ccc(Cl)cc12 | > 30 µM | > 30 µM
41 | COc1ccc(OC)c(C2C3=C(CC(C)(C)CC3=O)N(c3ccc(Cl)c(Cl)c3)C3=C2C(=O)CC(C)(C)C3)c1 | > 30 µM | > 30 µM
42 | COCCN(C(=O)Cc1cccs1)C(C(=O)NCc1ccc(OC)cc1)c1ccc(C(C)C)cc1 (centres undefined) | > 30 µM | > 30 µM
